From PubChem BioAssay AID2060487 (Molecular Pharmacology Branch, DTP, NCI, 2025)
pIC50: −log10 of the molar value.

Tested on: 997537-175-T-J1-PDC complex spheroid viability
Test: Anticancer human tumor 997537-175-T-J1-PDC patient-derived colon adenocarcinoma cell line growth inhibition [GQUAD]
Details: for pIC50: curve of first compound; for viability, T/C: stronger effect = lower value
Summary of the method: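 Multi-cell-type spheroids of tumor cells with HUVEC and mesenchymal stem cells, treated with drug combinations. Concentrations descend in half-log steps from near clinical Cmax, or from 10 microM where Cmax is unknown; viability read-out.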

[1] = second compound 0.0316 µM, first compound 0.0316 µM
[2] = second compound 0.0316 µM, first compound 0.1 µM
[3] = second compound 0.0316 µM, first compound 0.316 µM
[4] = second compound 0.0316 µM, first compound 1 µM
[5] = second compound 0.0316 µM, first compound 3.16 µM
[6] = second compound 0.0316 µM, first compound 10 µM
[7] = second compound 0.1 µM, first compound 0.0316 µM
[8] = second compound 0.1 µM, first compound 0.1 µM
[9] = second compound 0.1 µM, first compound 0.316 µM
[10] = second compound 0.1 µM, first compound 1 µM
[11] = second compound 0.1 µM, first compound 3.16 µM
[12] = second compound 0.1 µM, first compound 10 µM
[13] = second compound 0.316 µM, first compound 0.0316 µM
[14] = second compound 0.316 µM, first compound 0.1 µM
[15] = second compound 0.316 µM, first compound 0.316 µM
[16] = second compound 0.316 µM, first compound 1 µM
[17] = second compound 0.316 µM, first compound 3.16 µM
[18] = second compound 0.316 µM, first compound 10 µM
[19] = second compound 1 µM, first compound 0.0316 µM
[20] = second compound 1 µM, first compound 0.1 µM
[21] = second compound 1 µM, first compound 0.316 µM
[22] = second compound 1 µM, first compound 1 µM
[23] = second compound 1 µM, first compound 3.16 µM
[24] = second compound 1 µM, first compound 10 µM
[25] = second compound 3.16 µM, first compound 0.0316 µM
[26] = second compound 3.16 µM, first compound 0.1 µM
[27] = second compound 3.16 µM, first compound 0.316 µM
[28] = second compound 3.16 µM, first compound 1 µM
[29] = second compound 3.16 µM, first compound 3.16 µM
[30] = second compound 3.16 µM, first compound 10 µM
[31] = second compound 10 µM, first compound 0.0316 µM
[32] = second compound 10 µM, first compound 0.1 µM
[33] = second compound 10 µM, first compound 0.316 µM
[34] = second compound 10 µM, first compound 1 µM
[35] = second compound 10 µM, first compound 3.16 µM
[36] = second compound 10 µM, first compound 10 µM
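Note: spheroids exposed to the agents for 7 days.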
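Throughout, for viability, T/C: 100% = DMSO vehicle control viability.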

C=CC(=O)N1CCN(c2nc(=O)n(-c3c(C)ccnc3C(C)C)c3nc(-c4c(O)cccc4F)c(F)cc23)C(C)C1 (stereo unspecified) + Cc1[nH]c2ccc(F)cc2c1-c1nc2c3cccnc3c3ncccc3c2[nH]1
pIC50 (second compound 0.0316 µM): < 5.00 | pIC50 (second compound 0.1 µM): < 5.00 | pIC50 (second compound 0.316 µM): < 5.00 | pIC50 (second compound 1 µM): < 5.00 | pIC50 (second compound 3.16 µM): < 5.00 | pIC50 (second compound 10 µM): < 5.00 | viability, T/C [1]: 102% | viability, T/C [2]: 89.9% | viability, T/C [3]: 86.2% | viability, T/C [4]: 92.5% | viability, T/C [5]: 91.7% | viability, T/C [6]: 97.5% | viability, T/C [7]: 91.1% | viability, T/C [8]: 71.1% | viability, T/C [9]: 87.9% | viability, T/C [10]: 75.4% | viability, T/C [11]: 101% | viability, T/C [12]: 92% | viability, T/C [13]: 92.4% | viability, T/C [14]: 65.8% | viability, T/C [15]: 74.8% | viability, T/C [16]: 85.9% | viability, T/C [17]: 95.3% | viability, T/C [18]: 96.5% | viability, T/C [19]: 92.8% | viability, T/C [20]: 89.9% | viability, T/C [21]: 87.9% | viability, T/C [22]: 83.2% | viability, T/C [23]: 90.2% | viability, T/C [24]: 97.6% | viability, T/C [25]: 80.7% | viability, T/C [26]: 72.5% | viability, T/C [27]: 74.3% | viability, T/C [28]: 89% | viability, T/C [29]: 100% | viability, T/C [30]: 80% | viability, T/C [31]: 82.3% | viability, T/C [32]: 75.8% | viability, T/C [33]: 87.3% | viability, T/C [34]: 69.8% | viability, T/C [35]: 79.3% | viability, T/C [36]: 84.3%

Cc1[nH]c2ccccc2c1CCNCc1ccc(/C=C/C(=O)NO)cc1 + CN(C)c1ccc(Nc2c3ccc(NC(=O)CCN4CCCC4)cc3nc3cc(NC(=O)CCN4CCCC4)ccc23)cc1
pIC50 (second compound 0.0316 µM): 6.52 | pIC50 (second compound 0.1 µM): 6.60 | pIC50 (second compound 0.316 µM): 6.60 | pIC50 (second compound 1 µM): 6.70 | pIC50 (second compound 3.16 µM): < 6.50 | pIC50 (second compound 10 µM): 6.63 | viability, T/C (second compound 0.0316 µM, first compound 0.000999 µM): 103% | viability, T/C (second compound 0.0316 µM, first compound 0.00316 µM): 74.8% | viability, T/C (second compound 0.0316 µM, first compound 0.00999 µM): 85% | viability, T/C [1]: 102% | viability, T/C (second compound 0.0316 µM, first compound 0.0999 µM): 77.2% | viability, T/C [3]: 48.8% | viability, T/C (second compound 0.1 µM, first compound 0.000999 µM): 97.8% | viability, T/C (second compound 0.1 µM, first compound 0.00316 µM): 86% | viability, T/C (second compound 0.1 µM, first compound 0.00999 µM): 79.2% | viability, T/C [7]: 94% | viability, T/C (second compound 0.1 µM, first compound 0.0999 µM): 78.8% | viability, T/C [9]: 42.4% | viability, T/C (second compound 0.316 µM, first compound 0.000999 µM): 91.5% | viability, T/C (second compound 0.316 µM, first compound 0.00316 µM): 81.8% | viability, T/C (second compound 0.316 µM, first compound 0.00999 µM): 88% | viability, T/C [13]: 80.9% | viability, T/C (second compound 0.316 µM, first compound 0.0999 µM): 93.3% | viability, T/C [15]: 41% | viability, T/C (second compound 1 µM, first compound 0.000999 µM): 88.5% | viability, T/C (second compound 1 µM, first compound 0.00316 µM): 77.1% | viability, T/C (second compound 1 µM, first compound 0.00999 µM): 87.5% | viability, T/C [19]: 80.8% | viability, T/C (second compound 1 µM, first compound 0.0999 µM): 96.1% | viability, T/C [21]: 26% | viability, T/C (second compound 3.16 µM, first compound 0.000999 µM): 89.5% | viability, T/C (second compound 3.16 µM, first compound 0.00316 µM): 74.9% | viability, T/C (second compound 3.16 µM, first compound 0.00999 µM): 87.6% | viability, T/C [25]: 68% | viability, T/C (second compound 3.16 µM, first compound 0.0999 µM): 91.6% | viability, T/C [27]: 55% | viability, T/C (second compound 10 µM, first compound 0.000999 µM): 82.3% | viability, T/C (second compound 10 µM, first compound 0.00316 µM): 56.7% | viability, T/C (second compound 10 µM, first compound 0.00999 µM): 96.1% | viability, T/C [31]: 81.1% | viability, T/C (second compound 10 µM, first compound 0.0999 µM): 98.8% | viability, T/C [33]: 39%

C=CC(=O)N1CCN(c2nc(=O)n(-c3c(C)ccnc3C(C)C)c3nc(-c4c(O)cccc4F)c(F)cc23)C(C)C1 (stereo unspecified) + CN(C)c1ccc(Nc2c3ccc(NC(=O)CCN4CCCC4)cc3nc3cc(NC(=O)CCN4CCCC4)ccc23)cc1
pIC50 (second compound 0.0316 µM): < 5.00 | pIC50 (second compound 0.1 µM): < 5.00 | pIC50 (second compound 0.316 µM): < 5.00 | pIC50 (second compound 1 µM): < 5.00 | pIC50 (second compound 3.16 µM): < 5.00 | pIC50 (second compound 10 µM): < 5.00 | viability, T/C [1]: 103% | viability, T/C [2]: 99.2% | viability, T/C [3]: 86.6% | viability, T/C [4]: 68.8% | viability, T/C [5]: 70.6% | viability, T/C [6]: 85.6% | viability, T/C [7]: 87.7% | viability, T/C [8]: 88.4% | viability, T/C [9]: 93.5% | viability, T/C [10]: 82.1% | viability, T/C [11]: 95.7% | viability, T/C [12]: 89.8% | viability, T/C [13]: 90.7% | viability, T/C [14]: 98.5% | viability, T/C [15]: 88.7% | viability, T/C [16]: 77.5% | viability, T/C [17]: 92.4% | viability, T/C [18]: 74.7% | viability, T/C [19]: 89.5% | viability, T/C [20]: 93.1% | viability, T/C [21]: 97.7% | viability, T/C [22]: 67.9% | viability, T/C [23]: 104% | viability, T/C [24]: 96.2% | viability, T/C [25]: 69.1% | viability, T/C [26]: 81.1% | viability, T/C [27]: 91.2% | viability, T/C [28]: 83.5% | viability, T/C [29]: 97.6% | viability, T/C [30]: 81.2% | viability, T/C [31]: 77% | viability, T/C [32]: 85.7% | viability, T/C [33]: 91.2% | viability, T/C [34]: 98.4% | viability, T/C [35]: 91.2% | viability, T/C [36]: 93.9%
